# Data taken from PubChem BioAssay (NCI).
#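 A five-concentration, 48-hour dose response in 96-well plates underlies each endpoint, interpolated linearly between surrounding concentrations. GI50 is the concentration that inhibits growth by half. Definition used: TGI = concentration required for complete inhibition of growth.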
# Tests used:
# Test in all cases: NCI-60 cell line screen, 48 h
# RPMI-8226 leukemia = tested on: RPMI-8226 leukemia
# KM12 colon = tested on: KM12 colon
# SW-620 colon = tested on: SW-620 colon
# LOX IMVI melanoma = tested on: LOX IMVI melanoma
# HL-60(TB) leukemia = tested on: HL-60(TB) leukemia
# NCI-H522 lung = tested on: NCI-H522 lung
# IGROV1 ovarian = tested on: IGROV1 ovarian
# CCRF-CEM leukemia = tested on: CCRF-CEM leukemia
# HOP-62 NSCLC = tested on: HOP-62 NSCLC
# HCT-116 colon = tested on: HCT-116 colon
SMILES,TGI (RPMI-8226 leukemia) [µM],TGI (KM12 colon) [µM],TGI (SW-620 colon) [µM],TGI (LOX IMVI melanoma) [µM],TGI (HL-60(TB) leukemia) [µM],TGI (NCI-H522 lung) [µM],TGI (IGROV1 ovarian) [µM],TGI (CCRF-CEM leukemia) [µM],TGI (HOP-62 NSCLC) [µM],TGI (HCT-116 colon) [µM],GI50 (RPMI-8226 leukemia) [µM],GI50 (KM12 colon) [µM],GI50 (SW-620 colon) [µM],GI50 (LOX IMVI melanoma) [µM],GI50 (HL-60(TB) leukemia) [µM],GI50 (NCI-H522 lung) [µM],GI50 (IGROV1 ovarian) [µM],GI50 (CCRF-CEM leukemia) [µM],GI50 (HOP-62 NSCLC) [µM]
O=C1NC2(NC(=O)C1=O)Nc1ccccc1S2,57.9,> 100,> 46.1,37.8,> 64.8,50,> 100,66.3,> 100,38.9,,,,,,,,,
Nc1nccc2c1ncn2C1C=C(CO)C(O)C1O (configuration not stated),> 1000,> 1000,> 1000,> 1000,> 1000,> 1000,> 1000,> 1000,89.9,> 85.8,243,0.755,0.775,335,0.337,> 1000,> 1000,1.91,0.408
Cc1ccc([S+](c2ccccc2)c2cc(C)ccc2C)cc1 (configuration not stated),> 100,> 100,> 100,> 100,66.5,28.2,25.3,> 100,90.8,> 100,,,,,,,,,
O=[P+](O)c1cccs1,> 100,,> 100,> 100,> 100,> 100,> 100,> 100,,> 100,,,,,,,,,
Oc1ccc(NCc2cc(O)ccc2O)cc1,44.4,42,> 100,38,11.7,,34.2,,35.7,35.8,,,,,,,,,
O=NN(CCCl)C(=O)Nc1ccc(Cl)c(Cl)c1,> 100,> 100,> 100,> 100,> 100,> 89.5,> 100,> 100,> 100,> 100,,,,,,,,,
COC[C@@H]1Cc2cc(OC)c3c(c2[C@H](c2ccc(OC)c(OC)c2)[C@H]1COC)OCO3,,> 100,> 100,> 100,> 100,> 100,> 100,> 100,,> 100,,,,,,,,,
CCOC(=O)c1c(SC)nc(-c2ccc(Cl)cc2)sc1=N,> 100,> 100,> 100,> 100,78.7,,54.5,> 100,95.7,72,,,,,,,,,
